Experiment [1] relates to thoracic aorta specimens of SHRs. In words: measurement test of isometric tension in blood vessels (vasodilatory effect on phenylephrine-constricted ring specimens). It is filed as cell-based, rat (spontaneously hypertensive rat, SHR). The arrangement: dilation rate: dose or concentration left out as unconfirmed. To be noted: for concentration from which a vasodilatory effect / dilation reaction is shown: cumulative addition. How it is done:
In the examination of each condition, concentration of the active ingredient was checked by identifying fractions showing vasodilatory effect by measurement test of isometric tension in blood vessels at each purification stage.
Thoracic aorta used for the test was removed from a male 10-12 week-old SHR; after removal of the connective tissue, it was cut into a length 2-3 mm to produce ring specimens. The resulting ring specimens were attached to an organ bus filled with Krebs solution of 37° C. (119 mM NaCl/4.7 mM KCl/1.1 mM KH2PO4/1.2 mM MgSO4/25 mM NaHCO3, pH 7.4) in which a mixed gas of 95% O2-5% CO2 was aerated, then a static tension of 1.5 g was applied (UFER UC-05A; Iwashiya Kishimoto Ika Sangyo K.K., Kyoto). Vascular tension was measured by UFER UM-203 transducer (Iwashiya Kishimoto Ika Sangyo). After 60-min incubation from the attachment, the ring specimens were constricted using a vasoconstrictor phenylephrine (final concentration of 0.30 μM). To the constricted ring specimens, commercially available acetylcholine, that is an endothelium-dependent vasodilator (final concentration of 100 μM) was added, and presence/absence of vascular endothelium was determined by presence/absence of vasodilatory effect. Then, the ring specimens were washed with Krebs solution to remove the drugs, incubated at static tension for 10 min, and again constricted by 0.30 μM phenylephrine.

Experiment [2] deals with systolic blood pressure of SHRs. In words: single oral administration test to SHRs (blood pressure by tail cuff method). Type of experiment: in vivo, rat (spontaneously hypertensive rat. The note with it: single oral 10^−11 mol/kg, SHR; for maximum decrease in systolic blood pressure: 9 h after administration, compared to the control group; for blood pressure effect compared to the control group: measured 3, 6, 9 and 24 h after administration. How it is done: Animal experiments were carried out according to the animal experiment guidelines of Shinshu University. In the present study, spontaneously hypertensive rats of 10-13 week-old males (SHR/NCrlCrlj, Charles River Laboratories Japan, Yokohama) were used as an experimental animal. SHRs were bred in individual cages in a breeding room controlled with a light-dark cycle of […] and a room temperature of 22-23° C. In acclimation breeding, rat standard diet (MF; Charles River Laboratories) and tap water were fed ad libitum. SHRs are a rat strain that has been isolated in 1963 by selection mating from Wistar-Kyoto rats that had been bred in the animal experimentation center of Kyoto University. They are referred to as spontaneously hypertensive rats or essential hypertensive rats; while systolic blood pressure of the separation maternal. Wistar-Kyoto rats is approximately 135 mmHg for mature males and approximately 132 mmHg for mature females, blood pressure of almost all the SHRs becomes 150 mmHg or higher at 2 months from the birth, and reaches almost a maximum value at 4-5 months, with many of the values showing 180-210 mmHg. In general, as a model animal of essential hypertension that s said to be account for approximately 90% of the hypertension in humans, SHRs have been used to elucidate pharmacological effects and food functions, and a mechanism of blood pressure rise.
Single oral administration test was carried out using male 12-week-old SHRs with a body weight of 280-320 g. After acclimation breeding for 1 week, the rats were fasted for 12 h, and a sample was given to the rats by a single oral administration. The sample to be administered was dissolved in pure water, and given by a single oral administration with a dose of 10^−11 mol/kg (b.w.) to each 6 SHRs. Sample aqueous solutions of purified acetylcholine, propionylcholine and butyrylcholine were acidic, with a pH of 4.7, 4,3, and 4.4, respectively. To the control group, pure water was administered. Changes in the systolic blood pressure and diastolic blood pressure were measured using non-invasive blood pressure measuring instrument Softron BP-98A (Softron Co., Ltd., Tokyo) by tail cuff method, before administration and at 3, 6, 9, and 24 h after administration. Results of the single oral administration test of purified acetylcholine, propionylcholine and butyrylcholine were shown in FIG. 7.

Molecules are shown by their SMILES. Like-named read-outs stand apart in the source and are kept apart here.

For `CC(=O)OCC[N+](C)(C)C` [acetylcholine], the EC50 (as a rule, the midpoint of the concentration-response curve) in experiment [1] (Rattus norvegicus, hydrochloride salt, summary sentence b69, read-out: EC50 of vasodilatory effect (unit inferred)) is 27.2 nM; in experiment [1] (Rattus norvegicus, hydrochloride salts, cumulative addition 10^−9 to 10^−4 M, read-out: EC50 of vasodilatory effect), 27.2 nM. This compound yielded a maximum dilation rate in experiment [1] (at 10^−6 M) of 89.9%. The same compound showed a dilation rate in experiment [1] (at the addition) of 1.52%. In addition, the “concentration from which a vasodilatory effect / dilation reaction is shown” value in experiment [1] (hydrochloride salts) is on record as 10^−9 M. Also, the “maximum decrease in systolic blood pressure” value in experiment [2] came out at 24.7 mmHg.

Turning to `CCCC(=O)OCC[N+](C)(C)C` [butyrylcholine], the dilation in experiment [1] (at the addition of 10^−4 M) is 7.14%. Besides, the “blood pressure effect compared to the control group” value in experiment [2] is on record as “no significant decrease in blood pressure”.

For `CCC(=O)OCC[N+](C)(C)C` [propionylcholine], the maximum dilation rate in experiment [1] (at 10^−4 M) is 95.2%. Further, the “concentration from which a vasodilatory effect / dilation reaction is shown” value in experiment [1] (hydrochloride salts) was 10^−7 M. Besides, the concentration giving a half-maximal response (EC50) in experiment [1] (hydrochloride salts, cumulative addition 10^−9 to 10^−4 M, read-out: EC50 of vasodilatory effect) was 2270 nM. In addition, in experiment [2], the “maximum decrease in systolic blood pressure” value is reported as 8.05 mmHg and the “blood pressure effect compared to the control group” value is “significant vasodilatory effect”.

The values are drawn from patent US20170182108A1, “FERMENTED FOOD EXTRACT COMPOSITION” (priority 2014, published 2017).
